From patent publication US4032536A, “(1H-Benzimidazol-2-yl)carbamates” (Janssen Pharmaceutica N.V., priority 1976, dated 1977)

What was measured:
[1] = test system: Syphacia muris; assay: Activity against Syphacia muris in rats; format: in vivo; details: po, 120 h, orally by gavage, autopsy five days after treatment
Procedure: A. Activity against Syphacia muris in rats.
(§1) Syphacia muris was selected as a test organism since this organism manifests its relationship with the human oxyuris, Enterobin vermicularis,by its life cycle, by the cyclical period of activity and by laying its eggs in the peri-anal zone. For artificial infections, adhesive cellophane tape is used to recover the eggs from the peri-anal skin and this tape is administered orally to rats. The thus-infected animals are housed in individual cages with food and water ad libitum. The compound to be tested is administered orally by gavage. A sterile saline solution or suspension of the compound is made at various concentrations corresponding to 40, 10, 2.5, 1.25, 0.63, 0.31 and 0.16 mg/kg body weight. Control animals receive the same amount of saline. Five days thereafter the animals are sacrificed. Coecum, colon and rectum are isolated and washed on a sieve of mesh 100. Table I gives the ED50 -values for a number of the compounds of formula (I). The compounds listed therein are not given for the purpose of limiting the invention thereto but only to exemplify the useful anthelmintic properties of all the compounds within the scope of formula (I).

[2] = test system: Strongyloides ratti; assay: Activity against Strongyloides ratti in rats; format: in vivo; details: po, young male Wistar rats, orally, treated on day 7 after infection, autopsied day 13, 50% reduction of number of worms vs untreated controls
Procedure: as §1
B. Activity against Strongyloides ratti in rats.
Young male Wistar rats, weighing about 100 g are used in this test. Infective larvae of Strongyloides ratti are collected from charcoal cultures, put into a beaker with tapwater and stirred magnetically for counting. The rats are infected subcutaneously with about 1000 larvae, treated on day 7 after infection in the same manner as described in experiment A, and autopsied on day 13. The anterior part of the intestine is divided into two sections, each of 10 cm. length and placed inside out on a wood-applicator. These sections are incubated in physiological saline for 4 hours at 37° C. Worms obtained from the sedimentation of incubation saline are sampled and counted under a dissection microscope. In table I are given ED50 -values for a number of compounds of formula (I). These ED50 -values represent the amount of the compound under investigation in mg/kg which reduces the number of worms 50% with respect to the number found in the untreated control animals.

SMILES | ED50 [1] [mg/kg] | ED50 [2] [mg/kg]
COC(=O)Nc1nc2ccc(C3(c4ccccc4)OCCC(C)O3)cc2[nH]1 (stereo not shown) | 40 | 1.25
COC(=O)Nc1nc2ccc(C3(c4ccc(F)cc4)OCCO3)cc2[nH]1 | 5 | 0.31
COC(=O)Nc1nc2ccc(C3(c4ccccc4)OCCO3)cc2[nH]1 | 1.25 | 0.63
COC(=O)Nc1nc2ccc(C3(c4cccs4)OCC(C)O3)cc2[nH]1 (stereo not shown) | 10 | 10
COC(=O)Nc1nc2ccc(C3(c4ccccc4)OCC(C)O3)cc2[nH]1 (stereo not shown) | 2.5 | 0.31
COC(=O)Nc1nc2ccc(C3(c4cccs4)OCCO3)cc2[nH]1 | 2.5 | 2.5
COC(=O)Nc1nc2ccc(C3(c4cccs4)OC(C)C(C)O3)cc2[nH]1 (stereo not shown) | 2.5 | 10
COC(=O)Nc1nc2ccc(C3(c4cccs4)OCC(C)(C)CO3)cc2[nH]1 | 40 | 10
COC(=O)Nc1nc2ccc(C3(c4ccccc4)OCC(C)(C)CO3)cc2[nH]1 | 10 | 2.5
COC(=O)Nc1nc2ccc(C3(c4cccs4)OCCC(C)O3)cc2[nH]1 (stereo not shown) | 10 | 10
COC(=O)Nc1nc2ccc(C3(c4ccccc4)OC(C)C(C)O3)cc2[nH]1 (stereo not shown) | 2.5 | 1.25
